From publication PMC3749252 (Nature chemical biology, 2013)

Experiments:
[1] = biological target: T1, mouse Smoothened (mSmo) (Mus musculus, UniProt P56726); assay: competition of 22-NHC bead binding
T1 sequence (P56726 32-236): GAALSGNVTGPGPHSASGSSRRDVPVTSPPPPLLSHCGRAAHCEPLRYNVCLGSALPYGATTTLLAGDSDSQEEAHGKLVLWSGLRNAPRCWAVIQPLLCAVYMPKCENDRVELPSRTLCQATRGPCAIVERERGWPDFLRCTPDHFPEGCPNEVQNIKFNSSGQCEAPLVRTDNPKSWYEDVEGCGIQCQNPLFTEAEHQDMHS

[2] = biological target: T1, mouse Smoothened (mSmo); assay: competition of binding to 20-OHC affinity beads, immunoblot

Structure (SMILES)	competition of 22-NHC bead binding; 20-OHC affinity beads, immunoblot [1]	competition of binding to 20-OHC affinity beads, immunoblot [2]
CC(C)CCC[C@](C)(O)[C@H]1CC[C@H]2[C@@H]3CC=C4C[C@@H](O)CC[C@]4(C)[C@H]3CC[C@@]21C [20(S)-hydroxycholesterol]	Binding of mSmoCRD to 22-NHC beads was competed by 20-OHC and 20-OHC-Pent, but not by 7-OHC	
C[C@H](CCCC(C)(C)O)[C@H]1CC[C@H]2[C@@H]3CC=C4C[C@@H](O)CC[C@]4(C)[C@H]3CC[C@]12C [25-OHC]		binding of mSmo and mSmoCRD to 20-OHC beads was competed by the active oxysterol 25-OHC
